# Target: Intestinal-type alkaline phosphatase (Mus musculus, UniProt P24822)
# Test: PubChem AID 488785
# Sequence of Intestinal-type alkaline phosphatase (P24822 whole entry, looked up): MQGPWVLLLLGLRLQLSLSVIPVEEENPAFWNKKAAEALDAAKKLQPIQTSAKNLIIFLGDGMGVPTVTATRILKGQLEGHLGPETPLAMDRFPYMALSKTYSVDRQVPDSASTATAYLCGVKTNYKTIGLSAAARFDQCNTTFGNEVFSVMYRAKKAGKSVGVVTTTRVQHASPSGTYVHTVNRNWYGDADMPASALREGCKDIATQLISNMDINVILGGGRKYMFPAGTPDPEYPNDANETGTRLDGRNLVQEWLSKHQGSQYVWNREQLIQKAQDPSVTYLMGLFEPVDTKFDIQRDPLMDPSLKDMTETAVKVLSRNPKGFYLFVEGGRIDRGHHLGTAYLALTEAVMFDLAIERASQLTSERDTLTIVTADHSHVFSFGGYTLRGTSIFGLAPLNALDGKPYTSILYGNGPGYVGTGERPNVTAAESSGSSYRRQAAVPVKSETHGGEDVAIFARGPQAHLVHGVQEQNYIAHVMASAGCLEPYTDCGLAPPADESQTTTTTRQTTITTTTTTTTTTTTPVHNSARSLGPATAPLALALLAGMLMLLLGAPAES
row,SMILES,IC50 [µM]
1,NS(=O)(=O)c1cc(C(=O)NNC2=c3ccccc3=NC2=O)ccc1Cl [2-chloro-5-[[(2-oxoindol-3-yl)amino]carbamoyl]benzenesulfonamide],42.4
2,"CC1NON=C1C(=O)NN=CC1=CC(=O)C(=O)C=C1 (stereo unspecified) [4-Methyl-furazan-3-carboxylic acid (3,4-dihydroxy-benzylidene)-hydrazide]",9.92
3,"Cc1ccc(/C=C2\SC(=S)N(/N=C/C3C=C([N+](=O)[O-])C=CC3=O)C2=O)o1 (stereo unspecified) [(5Z)-5-[(5-methylfuran-2-yl)methylidene]-3-[[(E)-(3-nitro-6-oxocyclohexa-2,4-dien-1-ylidene)methyl]amino]-2-sulfanylidene-1,3-thiazolidin-4-one]",61.9
4,C#CCOCCOCCOCCNc1nc(N2CCN(C(=O)CCCCCCCCCCNC(=O)[C@H]([C@@H](C)CC)n3cc(CCCCN=C(N)N)nn3)CC2)nc(N2CCN(C(=O)CCCCCCCCCCNC(=O)[C@@H]([C@H](C)O)n3cc(C)nn3)CC2)n1 [GT-RI],0.366
5,C#CCOCCOCCOCCNc1nc(N2CCN(C(=O)CCCCCCCCCCNC(=O)Cn3cc(CCCCCN)nn3)CC2)nc(N2CCN(C(=O)CCCCCCCCCCNC(=O)Cn3cc(C[C@@H](C)O)nn3)CC2)n1 [KG-TG],6.31
6,O=C1C=CC(C=NNC(=S)Nc2ccccc2[N+](=O)[O-])C=C1O (stereo unspecified) [MLS000417596],0.216

# Continued by falling IC50, values first:
row,IC50 [µM],SMILES
1,17.1,C#CCOCCOCCOCCNc1nc(N2CCN(C(=O)CCCCCCCCCCNC(=O)[C@@H](CCC(=O)O)n3cc(CCCCCN)nn3)CC2)nc(N2CCN(C(=O)CCCCCCCCCCNC(=O)[C@H]([C@@H](C)CC)n3cc(CCCCCN)nn3)CC2)n1 [KI-KE]
2,8.38,COc1cc(C=CC(=O)CC(=O)C=Cc2ccc(O)cc2)ccc1O [demethoxycurcumin]
3,7.75,O=C(Nn1c(O)csc1=S)C(=O)Nn1c(O)csc1=S [SMR000349781]
4,5.89,C#CCOCCOCCOCCNc1nc(N2CCN(C(=O)CCCCCCCCCCNC(=O)[C@@H](CCSC)n3cc(CCO)nn3)CC2)nc(N2CCN(C(=O)CCCCCCCCCCNC(=O)[C@H]([C@@H](C)CC)n3cc(CCCCCN)nn3)CC2)n1 [MLS002153719]
5,4.15,"Oc1ccc(C=Nn2c(O)csc2=S)c(O)c1O [3-[[(E)-[2,3-bis(oxidanyl)-4-oxidanylidene-cyclohexa-2,5-dien-1-ylidene]methyl]amino]-2-sulfanylidene-1,3-thiazolidin-4-one]"
6,2.79,"Nc1nnc(CC(=O)N/N=C/C2C=C([N+](=O)[O-])C=C(Br)C2=O)s1 (stereo unspecified) [2-(5-azanyl-1,3,4-thiadiazol-2-yl)-N'-[(E)-(5-bromanyl-3-nitro-6-oxidanylidene-cyclohexa-2,4-dien-1-ylidene)methyl]ethanehydrazide]"
7,2.2,"COc1cc(C=Nn2c(O)csc2=S)ccc1O [3-[[(E)-(3-methoxy-4-oxidanylidene-cyclohexa-2,5-dien-1-ylidene)methyl]amino]-2-sulfanylidene-1,3-thiazolidin-4-one]"
8,1.51,"Oc1ccc(CN=Nc2cc(N3CCCC3)nc(N3CCCC3)n2)cc1O [(4Z)-4-[[2-(2,6-dipyrrolidin-1-ylpyrimidin-4-yl)hydrazinyl]methylidene]-2-hydroxycyclohexa-2,5-dien-1-one]"
9,1.04,O=C1C=CC(/C=C/c2nc(O)c([N+](=O)[O-])c(=O)[nH]2)C=C1O (stereo unspecified) [SMR000524347]
10,0.206,Cc1ccc(Cl)c2c1NC(=O)/C2=C1/NC(=S)NC1=O
